Test system: A. parvosata
Assay: Susceptibility of A. parvosata to antibiotic disks
Format: cell-based, Actinomadura parvosata
Conditions: BBL susceptibility disks on nutrient agar; rifampin 5 ug, penicillin 10 U; 1 week at 28°C
Protocol: Susceptibility of A. parvosata to antibiotics was examined by placing BBL susceptibility disks on nutrient agar plates seeded with A. parvosata. Plates were placed at 4°C for 1 hour to permit diffusion of the antibiotics. Diameters of the zones of inhibition were measured after incubation for 1 week at 28°C.

Compound | susceptibility of A. parvosata to antibiotic disks (zones of inhibition)
penicillin | resistant
CO[C@H]1/C=C/O[C@@]2(C)Oc3c(C)c(O)c4c(O)c(c(/C=N/N5CCN(C)CC5)c(O)c4c3C2=O)NC(=O)/C(C)=C\C=C\[C@H](C)[C@H](O)[C@@H](C)[C@@H](O)[C@@H](C)[C@H](OC(C)=O)[C@@H]1C [rifampin] | resistant

Reference: patent EP0255256A2, “Antibiotics produced by actinomadura parvosata” (SMITHKLINE BECKMAN CORPORATION, priority 1986, dated 1988)
